Laboratory results published in patent US8212022B2, “Effect of carbohydrate concentration on sucralose extraction efficiency” (Tate & Lyle Technology Limited, priority 2008, dated 2012).

Assay: Partition coefficient K of sucralose between ethyl acetate and water (equal volumes)
Format: physicochemical
Conditions: for partition coefficient, K: equal volumes of ethyl acetate and water
Description: Unless the context indicates otherwise, in the specification and claims, the terms organic solvent, first organic solvent, second organic solvent, tetrachloro saccharide, trichloro saccharide, dichloro saccharide, salt, sucralose-6-ester, carbohydrate, and similar terms also include mixtures of such materials. The term saccharide includes monosaccharide, disaccharides, and polysaccharides. Solvent means a liquid that dissolves another material. An aqueous solvent is one in which water is the primary (greater than 50 vol % of the solvents present) or only solvent. Partition coefficient, K, of a carbohydrate between an organic solvent and water is the concentration of the carbohydrate in the organic phase divided by the concentration of the carbohydrate in the aqueous phase when equal volumes of organic solvent and water are used. […] Crystallization includes processes in which a solution is rendered saturated or supersaturated with respect to a dissolved component, and the formation of crystals of this component is achieved. The initiation of crystal formation can be spontaneous, or it can require the addition of seed crystals. Crystallization also describes the situation in which a solid or liquid material is dissolved in a solvent to yield a solution which is then rendered saturated or supersaturated so as to obtain crystals. Also, included in the term crystallization are the ancillary processes of washing the crystals with one or more solvents, drying the crystals, and harvesting the final product so obtained. Unless otherwise specified, all percentages are percentages by weight, all temperatures are in degrees Centigrade (degrees Celsius), and all solvent ratios are volume to volume.
Aqueous solutions of sucralose were prepared at various carbohydrate concentrations. An equal volume of ethyl acetate was then added to each solution and the two phases mixed thoroughly. After the two phases separated, the carbohydrate concentration in each phase was determined. The K value was calculated by dividing the concentration of sucralose in the ethyl acetate phase by the concentration of sucralose in the aqueous phase.

Compound	partition coefficient, K (initial concentration of sucralose in the aqueous phase about 5 wt %)	partition coefficient, K (initial concentration of sucralose in the aqueous phase about 15 wt %)	partition coefficient, K (initial concentration of sucralose in the aqueous phase about 16 wt %)	partition coefficient compared with sucralose (organic solvent such as ethyl acetate and water, equal volumes, same conditions as sucralose)
OC[C@H]1O[C@H](O[C@]2(CCl)O[C@H](CCl)[C@@H](O)[C@@H]2O)[C@H](O)[C@@H](O)[C@H]1Cl [sucralose, 4,1′,6′-trichloro-4,1′,6′-trideoxygalactosucrose]	0.4	about 1.1	about 1.2	–
CC(=O)OC[C@H]1O[C@H](O[C@]2(CCl)O[C@H](CCl)[C@@H](O)[C@@H]2O)[C@H](O)[C@@H](O)[C@H]1Cl [sucralose-6-acetate]	–	–	–	larger that the corresponding value for sucralose
